Like-named read-outs stand apart in the source and are kept apart here.
Test system: multidrug resistant strain of Plasmodium yoelii Nigeriensis
Experiment: Antimalarial activity against multidrug resistant P. yoelii in Swiss mice (4-day treatment, observed till day 28)
Assay type: in vivo
Conditions: for inhibition in vivo at 24 mg/kg/day / inhibition in vivo at 48 mg/kg/day / responders at 24 mg/kg/day / responders at 48 mg/kg/day / inhibition in vivo at 96 mg/kg/day / responders at 96 mg/kg/day / inhibition in vivo at 12 mg/kg/day / responders at 12 mg/kg/day: Plasmodium yoelii; for inhibition in vivo at 24 mg/kg/day / inhibition in vivo at 48 mg/kg/day / inhibition in vivo at 96 mg/kg/day / inhibition in vivo at 12 mg/kg/day: 96 h, read-out: % Suppression on Day 4; for responders at 24 mg/kg/day / responders at 48 mg/kg/day / responders at 96 mg/kg/day / responders at 12 mg/kg/day: 672 h
Method: The antimalarial activity of the test compounds was evaluated in rodent using multidrug resistant strain of Plasmodium yoelii Nigeriensis in Swiss mice.
Random bred Swiss mice of either sex (20±2 gm) were inoculated intraperitoneally with 1×10^5 P. yoelii (MDR) parasites on day zero. Treatments with test compounds were administered to group of 5 mice each at different dose levels ranging between 12–96 mg/kg/day. Treatment was administered in groundnut oil intramuscularly and orally for 4 consecutive days (day 0–3). Blood smears from experimental mice were observed on day 4 and 7, day 10 and thereafter at regular intervals till day 28 or death of animal. Parasitaemia level on day 4 was compared with vehicle control group and percent suppression of parasitaemia in treated groups was calculated. […] The dose at which no parasitaemia develop during the observation period was reported as curative dose.

[1] = po, read-out: Mice alive on day-28
[2] = Swiss mice, 96 mg/kg/day, im, day 0-3
[3] = Swiss mice, 96 mg/kg/day, im, day 0-3, in groundnut oil
[4] = po, Swiss mice, 96 mg/kg/day, oral, day 0-3, in groundnut oil
[5] = po, Swiss mice, 96 mg/kg/day, oral, day 0-3, read-out: Mice alive on day-28 (converted)
[6] = im, Swiss mice, 96 mg/kg/day, im, day 0-3, in groundnut oil
[7] = im, Swiss mice, 96 mg/kg/day, im, day 0-3, read-out: Mice alive on day-28 (converted)
[8] = po, Swiss mice, 48 mg/kg/day, oral, day 0-3, in groundnut oil
[9] = po, Swiss mice, 48 mg/kg/day, oral, day 0-3, read-out: Mice alive on day-28 (converted)
[10] = Swiss mice, 48 mg/kg/day, oral, day 0-3, 48 mg/kg/day
[11] = po, Swiss mice, oral, day 0-3, in groundnut oil
[12] = po, Swiss mice, 24 mg/kg/day, oral, day 0-3, in groundnut oil
[13] = po, Swiss mice, oral, day 0-3, read-out: Mice alive on day-28
[14] = po, Swiss mice, 24 mg/kg/day, oral, day 0-3, read-out: Mice alive on day-28 (converted)
[15] = Swiss mice, 48 mg/kg/day, oral, day 0-3, in groundnut oil
[16] = Swiss mice, 96 mg/kg/day, oral, day 0-3
[17] = Swiss mice, 96 mg/kg/day, oral, day 0-3, in groundnut oil
[18] = Swiss mice, 24 mg/kg/day, oral, day 0-3, in groundnut oil

CCN(CC)CCCC(C)Nc1ccnc2cc(Cl)ccc12 (centres unmarked) [Chloroquine, reference compound]
inhibition in vivo at 24 mg/kg/day (po): 100% | inhibition in vivo at 48 mg/kg/day (po): 100% | responders at 24 mg/kg/day [1]: 0% | responders at 48 mg/kg/day [1]: 40%

C=C(c1ccccc1)C1COC2(CCC(=O)CC2)OO1 (centres unmarked) [Compound 3a, 3-(1-Phenyl-Vinyl)-1,2,5-Trioxaspiro[5.5]undec-9-one]
Mice alive on day-28 [2]: 0/5 | % Suppression on Day 4 [3]: 99%

C=C(c1ccc(-c2ccccc2)cc1)C1COC2(CCC(=O)CC2)OO1 (centres unmarked) [Compound 3b, 3-(1-Biphenyl-4yl-Vinyl)-1,2,5-Trioxaspiro[5.5]undec-9-one]
Mice alive on day-28 [2]: 1/5 | % Suppression on Day 4 [3]: 100%

C=C(c1ccc(Cl)cc1)C1COC2(CCC(=O)CC2)OO1 (centres unmarked) [Compound 3c, 3-[1-(4-Chloro-Phenyl)-Vinyl]-1,2,5-Trioxa-Spiro[5.5]undecan-9-one]
inhibition in vivo at 96 mg/kg/day [4]: 100% | responders at 96 mg/kg/day [5]: 0%

C=C(c1ccccc1)C1COC2(CCC(Nc3ccc(Cl)cc3)CC2)OO1 (centres unmarked) [Compound 4aa, (4-Chloro-Phenyl)-[3-(1-Phenyl-Vinyl)-1,2,5-Trioxa-Spiro[5.5]undec-9-yl]-Amine]
inhibition in vivo at 96 mg/kg/day [6]: 71% | responders at 96 mg/kg/day [7]: 40% | inhibition in vivo at 48 mg/kg/day [8]: 100% | inhibition in vivo at 96 mg/kg/day [4]: 100% | responders at 48 mg/kg/day [9]: 60% | responders at 96 mg/kg/day [5]: 100%

C=C(c1ccccc1)C1COC2(CCC(Nc3ccccc3-c3ccccc3)CC2)OO1 (centres unmarked) [Compound 4ab, Biphenyl-2-yl-[3-(1-Phenyl-Vinyl)-1,2,5-Trioxa-Spiro[5.5]undec-9-yl]Amine]
inhibition in vivo at 48 mg/kg/day [8]: 100% | inhibition in vivo at 96 mg/kg/day [4]: 100% | responders at 96 mg/kg/day [5]: 100% | Mice alive on day-28 [10]: 0/5

C=C(c1ccccc1)C1COC2(CCC(Nc3ccccc3-c3ccccc3)CC2)OO1 (centres unmarked) [Compound 4ac, Biphenyl-2-yl-[3-(1-Phenyl-Vinyl)-1,2,5-Trioxa-Spiro[5.5]undec-9-yl]Amine]
inhibition in vivo at 96 mg/kg/day [6]: 74% | responders at 96 mg/kg/day [7]: 0% | inhibition in vivo at 12 mg/kg/day [11]: 100% | inhibition in vivo at 24 mg/kg/day [12]: 100% | responders at 12 mg/kg/day [13]: 0% | responders at 24 mg/kg/day [14]: 40% | % Suppression on Day 4 [15]: 100% | Mice alive on day-28 [10]: 5/5 | Mice alive on day-28 [16]: 5/5 | % Suppression on Day 4 [17]: 100%

C=C(c1ccccc1)C1COC2(CCC(Nc3ccc(-c4ccccc4)cc3)CC2)OO1 (centres unmarked) [Compound 4ad, Biphenyl-4-yl-[3-(1-Phenyl-Vinyl)-1,2,5-Trioxa-Spiro[5.5]undec-9-yl]Amine]
inhibition in vivo at 12 mg/kg/day [11]: 99% | inhibition in vivo at 24 mg/kg/day [12]: 100% | inhibition in vivo at 48 mg/kg/day [8]: 100% | inhibition in vivo at 96 mg/kg/day [4]: 100% | responders at 12 mg/kg/day [13]: 0% | responders at 24 mg/kg/day [14]: 60% | responders at 48 mg/kg/day [9]: 100% | responders at 96 mg/kg/day [5]: 100%

C=C(c1ccccc1)C1COC2(CCC(Nc3ccc4c(c3)-c3ccccc3C4)CC2)OO1 (centres unmarked) [Compound 4ae]
Mice alive on day-28 [16]: 5/5 | % Suppression on Day 4 [17]: 100%

C=C(c1ccccc1)C1COC2(CCC(Nc3cccc(C(F)(F)F)c3)CC2)OO1 (centres unmarked) [Compound 4ah, [3-(1-Phenyl-Vinyl)-1,2,5-Trioxa-Spiro[5.5]undec-9-yl]-(3-Trifluoromethyl-Phenyl)-Amine]
inhibition in vivo at 96 mg/kg/day [6]: 83% | responders at 96 mg/kg/day [7]: 0% | inhibition in vivo at 24 mg/kg/day [12]: 100% | inhibition in vivo at 48 mg/kg/day [8]: 100% | inhibition in vivo at 96 mg/kg/day [4]: 100% | responders at 24 mg/kg/day [14]: 20% | responders at 48 mg/kg/day [9]: 100% | responders at 96 mg/kg/day [5]: 100%

C=C(c1ccc(-c2ccccc2)cc1)C1COC2(CCC(Nc3ccc(Cl)cc3)CC2)OO1 (centres unmarked) [Compound 4ba, [3-(1-Biphenyl-4-yl-Vinyl)-1,2,5-Trioxa-Spiro[5.5]undec-9-yl]-(4-Chloro-Phenyl)-Amine]
inhibition in vivo at 96 mg/kg/day [4]: 100% | responders at 96 mg/kg/day [5]: 100%

C=C(c1ccc(-c2ccccc2)cc1)C1COC2(CCC(Nc3ccccc3C(F)(F)F)CC2)OO1 (centres unmarked) [Compound 4bg, [3-(1-Biphenyl-4-yl-vinyl)-1,2,5-trioxa-spiro[5.5]undec-9-yl]-(2-trifluoromethyl-phenyl)-amine]
inhibition in vivo at 96 mg/kg/day [4]: 100% | responders at 96 mg/kg/day [5]: 40%

C=C(c1ccc(Cl)cc1)C1COC2(CCC(Nc3ccc(C)cc3)CC2)OO1 (centres unmarked) [Compound 4cb, {3-[1-(4-Chloro-Phenyl)-Vinyl]-1,2,5-Trioxa-Spiro[5.5]undec-9-yl}-p-Tolyl-Amine]
inhibition in vivo at 48 mg/kg/day [8]: 100% | responders at 48 mg/kg/day [9]: 100%

C=C(c1ccc(Cl)cc1)C1COC2(CCC(Nc3ccc(Cl)cc3)CC2)OO1 (centres unmarked) [Compound 4cc]
Mice alive on day-28 (Swiss mice, 24 mg/kg/day, oral, day 0-3): 4/5 | % Suppression on Day 4 [18]: 100% | Mice alive on day-28 (Swiss mice, 48 mg/kg/day, oral, day 0-3): 5/5 | % Suppression on Day 4 [15]: 100%

C=C(c1ccc(Cl)cc1)C1COC2(CCC(Nc3cc(Cl)cc(Cl)c3)CC2)OO1 (centres unmarked) [Compound 4ce, {3-[1-(4-Chloro-phenyl)-vinyl]-1,2,5-trioxa-spiro[5.5]undec-9-yl}-(3,5-dichloro-phenyl)-amine]
inhibition in vivo at 24 mg/kg/day [12]: 100% | inhibition in vivo at 48 mg/kg/day [8]: 100% | responders at 24 mg/kg/day [14]: 40% | Mice alive on day-28 [10]: 4/5

C=C(c1ccc(Cl)cc1)C1COC2(CCC(Nc3cc(Cl)cc(Cl)c3)CC2)OO1 (centres unmarked) [Compound 4cf, {3-[1-(4-Chloro-phenyl)-vinyl]-1,2,5-trioxa-spiro[5.5]undec-9-yl}-(3,5-dichloro-phenyl)-amine]
% Suppression on Day 4 [18]: 100% | Mice alive on day-28 (Swiss mice, 24 mg/kg/day, oral, day 0-3, 24 mg/kg/day): 1/5 | % Suppression on Day 4 [15]: 100% | Mice alive on day-28 [10]: 2/5

C=C(c1ccc(Cl)cc1)C1COC2(CCC(Nc3cccc4ccccc34)CC2)OO1 (centres unmarked) [Compound 4ch, {3-[1-(4-Chloro-phenyl)-vinyl]-1,2,5-trioxa-spiro[5.5]undec-9-yl}-naphthalen-1-yl-amine]
inhibition in vivo at 96 mg/kg/day [4]: 100% | responders at 96 mg/kg/day [5]: 40%

C=C(c1ccc(Cl)cc1)C1COC2(CCC(Nc3ccccc3-c3ccccc3)CC2)OO1 (centres unmarked) [Compound 4cj, Biphenyl-2-yl-{3-[1-(4-Chloro-Phenyl)-Vinyl]-1,2,5-Trioxa-Spiro[5.5]undec-9-yl}-Amine]
inhibition in vivo at 24 mg/kg/day [12]: 100% | inhibition in vivo at 48 mg/kg/day [8]: 100% | responders at 24 mg/kg/day [14]: 40% | responders at 48 mg/kg/day [9]: 100%

C=C(c1ccc(Cl)cc1)C1COC2(CCC(Nc3ccc(-c4ccccc4)cc3)CC2)OO1 (centres unmarked) [Compound 4ck, Biphenyl-4-yl-{3-[1-(4-Chloro-Phenyl)-Vinyl]-1,2,5-Trioxa-Spiro[5.5]undec-9-yl}-Amine]
inhibition in vivo at 96 mg/kg/day [4]: 100% | responders at 96 mg/kg/day [5]: 40%

C=C(c1ccc(Cl)cc1)C1COC2(CCC(Nc3cccc(C(F)(F)F)c3)CC2)OO1 (centres unmarked) [Compound 4co, {3-[1-(4-Chloro-phenyl)-vinyl]-1,2,5-trioxa-spiro[5.5]undec-9-yl}-(3-trifluoromethyl-phenyl)-amine]
inhibition in vivo at 96 mg/kg/day [6]: 73% | responders at 96 mg/kg/day [7]: 0% | inhibition in vivo at 24 mg/kg/day [12]: 100% | inhibition in vivo at 48 mg/kg/day [8]: 100% | inhibition in vivo at 96 mg/kg/day [4]: 100% | responders at 24 mg/kg/day [14]: 60% | responders at 48 mg/kg/day [9]: 100% | responders at 96 mg/kg/day [5]: 100%

C=C(c1ccc(OC)cc1)C1COC2(CCC(Nc3ccccc3)CC2)OO1 (centres unmarked) [Compound 4da, {3-[1-(4-Methoxy-Phenyl)-Vinyl]-1,2,5-Trioxa-Spiro[5.5]undec-9-yl}-Phenyl-Amine]
inhibition in vivo at 96 mg/kg/day [6]: 81% | responders at 96 mg/kg/day [7]: 0% | inhibition in vivo at 96 mg/kg/day [4]: 100% | responders at 96 mg/kg/day [5]: 0%
